# Where two headings read alike, the source gives them in different places.
# Columns and labels:
# [1] = cited from earlier work; for protective effect against paracetamol: 300 mg/kg, 450 mg/kg paracetamol orally; for protection against acetaminophen toxicity: free radical scavengers; for effect on acetaminophen hepatotoxicity: Kelleher et al.
# [2] = enhancement of acetaminophen hepatotoxicity (applicant's finding); conditions: in vivo
# [3] = administered up to one hour after acute toxic amounts of acetaminophen; cited from earlier work
# [4] = mouse, in vivo; cited from earlier work
# [5] = administered within 16 hours after an overdose; cited from earlier work
# [6] = 1894 paper, without supporting data; cited from earlier work
# [7] = 1894 paper; cited from earlier work
# [8] = hot plate test (Ankier), time to lick a back paw; format: in vivo, mice; conditions: 30 mg/kg i.p.; for average time before licking a back paw: 10 minutes after dose, plate 54° C., untreated control 44 seconds
# Method: Two groups of mice, six mice per group, were used in the hot plate test described by S. I. Ankier European Journal of Pharmacology 27:1-4 (1974). The control group, which was untreated, at a plate temperature of 54° C. took an average of 44 seconds to lick a back paw. The test group received a dose of N-ethyl-4'-hydroxyacetanilide (30 mg/kg) administered intraperitoneally, and when placed on the hot plate at 54° C. 10 minutes later, shown an average time of 64 seconds before licking a back paw. The analgesic activity of this compound thus increased the pain-response time by almost 50 percent.
# The analgesic properties of N-isopropylacetaminophen were tested using the hot plate test described by Ankier (Eur. J. Pharmacol. 27: 1-(1974)). Two groups of mice, 6 animals/group were used. The first group was placed on the hot plate, individually, and time need to lick the back paw was recorded and found to be 44 seconds (average) at 54° C. The second group of mice each received 30 mg/kg (i.p.) N-isopropylacetaminophen and after 10 minutes placed on the hot plate at 54° C. The time required to lick the rear paw was measured and found to be 64 seconds (average), thus increased response time by 50%.
# [9] = toxicity of N-isopropylacetaminophen, histopathology of liver, kidney and lung; format: in vivo, mice; conditions: 100-400 mg/kg i.p.; 24 hours
# Method: (§1) The toxicity of N-isopropylacetaminophen was evaluated by injecting mice with this compound at various doss from 100-400 mg/kg, i.p.) and 24 hours later, the animals were sacrificed and histopathology was determined for the liver, kidney and lung.
# [10] = CNS sedation by N-isopropylacetaminophen; format: in vivo, mice
# Method: as §1
# The higher the dose, the longer the sedation. This was also found to be the case when mice were given the drug orally, except the dose needed to give the same sedative activity was higher (400-600 mg/kg, oral). This sedative effect of the drug lasted from 30 min. at 250 mg/kg to approximately 1.5 hr at 400 mg/kg. At the higher dose, the mice went to sleep.
# [11] = therapeutically recommended doses for extended periods of time; cited from earlier work
# [12] = mouse, in vivo
# [13] = mouse, in vivo, cited from earlier work
# [14] = man; cited from earlier work
# [15] = chronic use; cited from earlier work
# [16] = system: cytochrome P-450; conditions: cited from earlier work
# [17] = vitamin E deficient rats; cited from earlier work
# [18] = 500 mg/kg i.p. in propylene glycol
molecule,measurement,setting,value
CC1NC(C(=O)O)CS1 (centres unmarked) [2-methylthiazolidine-4-carboxylic acid],protection against hepatotoxins,[1]; forms cysteine in the liver,can also protect against heptotoxins
"COc1ccc(O)c(C(C)(C)C)c1 [BHA, butylated hydroxyanisole]",effect on acetaminophen hepatotoxicity,[2],profoundly enhance its hepatotoxicity
"Cc1cc(C(C)(C)C)c(O)c(C(C)(C)C)c1 [BHT, butylated hydroxytoluene]",effect on acetaminophen hepatotoxicity,[2],profoundly enhance its hepatotoxicity
"C[S+](C)[O-] [DMSO, Dimethyl sulfoxide]",protection against hepatotoxic effects of acetaminophen,[3],protect mice against the hepatotoxic effects of acetaminophen
same,protection against CCl4 hepatotoxicity,[4],inability of DMSO to protect mice against CCl4 hepatotoxicity
CC(=O)N[C@@H](CS)C(=O)O [N-acetylcysteine],prevention of hepatotoxicity,[5],effective in preventing hepatotoxicity
CCN(C(C)=O)c1ccc(O)cc1 [N-ethyl-4'-hydroxyacetanilide],duration of sedative effects,[18],about one-half
same,sedative effects,[18],sedative effects
same,time to ataxia of the hind legs,[18],about 15 minutes
same,time to drowsiness,[18],about 25 minutes
same,duration of sleep,"600 mg/kg oral, aqueous vehicle, pH 12",25 to 40 min
same,analgesic properties,[6],no analgesic properties
same,antipyretic activity,[7],no antipyretic activity
same,average time before licking a back paw,[8],64 s
same,increase in pain-response time,"[8]; vs untreated control, 54° C.",~50%
"CC(=O)N(c1ccc(O)cc1)C(C)C [N-isopropylacetaminophen, N-isopropyl-4'-hydroxyacetanilide]","histopathology of liver, kidney and lung",[9],no organ showed any signs of injury
same,average time before licking a back paw,[8],64 s
same,increase in response time,"[8]; vs untreated control, 54° C.",50%
same,duration of sedative effect,[10]; 250 mg/kg,30 min
same,duration of sedative effect,[10]; 400 mg/kg,approximately 1.5 hr
same,CNS sedation,[10]; 250-400 mg/kg i.p.,significant CNS sedation
same,additional CNS effects after recovery from sedation,[10]; after recovery,no additional CNS effects were observed
same,sleep,[10]; higher dose,went to sleep
same,dose giving significant CNS sedation in all mice,[10]; i.p.,250 to 400 mg/kg
same,dose needed to give the same sedative activity,[10]; oral,400 to 600 mg/kg
CC(=O)Nc1ccc(O)cc1 [acetaminophen],hepatotoxicity on chronic ingestion,[11],massive hepatic necrosis
same,immediate symptomatic effects,"mouse, in vivo",No immediate symptomatic effects
same,fraction of the liver necrotic (estimated),[12],~60%
same,liver histopathology,[12],severe hepatic necrosis
same,oral LD50,[13]; po,about 400 mg/kg
same,hepatotoxicity at the oral LD50 dose,[13],severe hepatotoxicity
O=C1O[C@H]([C@@H](O)CO)C(O)=C1O [ascorbic acid],protective effect against paracetamol,[1]; nonsustained release form,no protective effect
same,protective effect against paracetamol,[1]; sustained release form,substantial protective effect
same,protection against acetaminophen hepatotoxicity,[1]; animal studies,may also provide such protection
same,apparent half-life of acetaminophen,[14],did not affect the apparent half-life
same,excretion rate of acetaminophen sulfate,[14],rapid and pronounced decrease
NCCS [cysteamine],protection against acetaminophen hepatotoxicity,[1]; man and experimental animals,varying degrees of protection
N[C@@H](CS)C(=O)O [cysteine],protection against acetaminophen hepatotoxicity,[1]; man and experimental animals,varying degrees of protection
CCO [ethanol],effect on acetaminophen-mediated hepatotoxicity,[15],markedly increased
same,induction of cytochrome P-450,[16],demonstrated to induce cytochrome P-450
N[C@@H](CCC(=O)N[C@@H](CS)C(=O)NCC(=O)O)C(=O)O [glutathione],protection against acetaminophen toxicity,[1],afford protection against acetaminophen toxicity
CSCC[C@H](N)C(=O)O [methionine],protection against acetaminophen hepatotoxicity,[1]; man and experimental animals,varying degrees of protection
CCC1(c2ccccc2)C(=O)NC(=O)NC1=O [phenobarbital],induction of cytochrome P-450,[16],well-known cytochrome P-450 inducer
CC(CN1c2ccccc2Sc2ccccc21)N(C)C (centres unmarked) [promethazine],protection against acetaminophen toxicity,[1],afford protection against acetaminophen toxicity
CCCOC(=O)c1cc(O)c(O)c(O)c1 [propyl gallate],effect on acetaminophen hepatotoxicity,[1],reduce heptatotoxicity
"Cc1c(C)c2c(c(C)c1O)CCC(C)(CCCC(C)CCCC(C)CCCC(C)C)O2 (stereo not drawn) [vitamin E, α-tocopherol]",protection against acetaminophen hepatotoxicity,[17],protects vitamin E deficient rats
same,effect on acetaminophen hepatotoxicity,[1],reduce heptatotoxicity
same,protection against acetaminophen hepatotoxicity,[1]; man and experimental animals,varying degrees of protection
CN(C)CCO [β-dimethylaminoethanol],protection against acetaminophen toxicity,[1],afford protection against acetaminophen toxicity
selenium,protection against acetaminophen hepatotoxicity,[1]; man and experimental animals,varying degrees of protection
